In brackets after ≈: the same amount, converted by molar mass.
Key:
Type in all cases: functional
Enterococcus faecalis [1] = test: Antibacterial activity against vancomycin-resistant Enterococcus faecalis ATCC 51575 assessed as inhibition of bacterial growth by CLSI based micro broth double dilution method
[2] = test system: Staphylococcus epidermidis; test: Antibacterial activity against methicillin-sensitive Staphylococcus epidermidis 16-4 assessed as inhibition of bacterial growth by CLSI based micro broth double dilution method
Pseudomonas aeruginosa [3] = test: Antibacterial activity against Pseudomonas aeruginosa 16-11 assessed as inhibition of bacterial growth by CLSI based micro broth double dilution method
Enterococcus faecalis [4] = test: Antibacterial activity against vancomycin-sensitive Enterococcus faecalis […] assessed as inhibition of bacterial growth by CLSI based micro broth double dilution method
Streptococcus pyogenes [5] = test: Antibacterial activity against erythromycin-sensitive Streptococcus pyogenes ATCC 19615 assessed as inhibition of bacterial growth by CLSI based micro broth double dilution method
Staphylococcus aureus [6] = test: Antibacterial activity against methicillin-sensitive Staphylococcus aureus ATCC 29213 assessed as inhibition of bacterial growth by CLSI based micro broth double dilution method
Staphylococcus aureus [7] = test: Antibacterial activity against methicillin-sensitive Staphylococcus aureus 15 assessed as inhibition of bacterial growth by CLSI based micro broth double dilution method
Escherichia coli [8] = test: Antibacterial activity against Escherichia coli 16-7 assessed as inhibition of bacterial growth by CLSI based micro broth double dilution method
Staphylococcus aureus [9] = test: Antibacterial activity against methicillin-sensitive Staphylococcus aureus 16-1 assessed as inhibition of bacterial growth by CLSI based micro broth double dilution method
Escherichia coli [10] = test: Antibacterial activity against ESBL-negative Escherichia coli ATCC 25922 assessed as inhibition of bacterial growth by CLSI based micro broth double dilution method
[11] = test system: Staphylococcus epidermidis; test: Antibacterial activity against methicillin-sensitive Staphylococcus epidermidis ATCC 12228 assessed as inhibition of bacterial growth by CLSI based micro broth double dilution method
Streptococcus pneumoniae [12] = test: Antibacterial activity against erythromycin-sensitive Streptococcus pneumoniae ATCC 49619 assessed as inhibition of bacterial growth by CLSI based micro broth double dilution method
Enterococcus faecalis [13] = test: Antibacterial activity against vancomycin-resistant Enterococcus faecalis ATCC 51299 assessed as inhibition of bacterial growth by CLSI based micro broth double dilution method
Streptococcus pneumoniae [14] = test: Antibacterial activity against erythromycin-resistant Streptococcus pneumoniae 12-3 assessed as inhibition of bacterial growth by CLSI based micro broth double dilution method
Escherichia coli [15] = test: Antibacterial activity against ESBL-positive Escherichia coli ATCC 35218 assessed as inhibition of bacterial growth by CLSI based micro broth double dilution method
Klebsiella pneumoniae [16] = test: Antibacterial activity against ESBL positive Klebsiella pneumoniae ATCC 700603 assessed as inhibition of bacterial growth by CLSI based micro broth double dilution method
Klebsiella pneumoniae [17] = test: Antibacterial activity against ESBL negative Klebsiella pneumoniae 16-2 assessed as inhibition of bacterial growth by CLSI based micro broth double dilution method
Streptococcus pyogenes [18] = test: Antibacterial activity against erythromycin-resistant Streptococcus pyogenes 12-1 assessed as inhibition of bacterial growth by CLSI based micro broth double dilution method
Pseudomonas aeruginosa [19] = test: Antibacterial activity against Pseudomonas aeruginosa PAO1 assessed as inhibition of bacterial growth by CLSI based micro broth double dilution method
Enterococcus faecalis [20] = test: Antibacterial activity against vancomycin-sensitive Enterococcus faecalis 16-6 assessed as inhibition of bacterial growth by CLSI based micro broth double dilution method
Pseudomonas aeruginosa [21] = test: Antibacterial activity against Pseudomonas aeruginosa ATCC 27853 assessed as inhibition of bacterial growth by CLSI based micro broth double dilution method
Klebsiella pneumoniae [22] = test: Antibacterial activity against ESBL negative Klebsiella pneumoniae 7 assessed as inhibition of bacterial growth by CLSI based micro broth double dilution method

Structure (SMILES) | MIC (Enterococcus faecalis [1]) | MIC [2] | MIC (Pseudomonas aeruginosa [3]) | MIC (Enterococcus faecalis [4]) | MIC (Streptococcus pyogenes [5]) | MIC (Staphylococcus aureus [6]) | MIC (Staphylococcus aureus [7]) | MIC (Escherichia coli [8]) | MIC (Staphylococcus aureus [9]) | MIC (Escherichia coli [10]) | MIC [11] | MIC (Streptococcus pneumoniae [12]) | MIC (Enterococcus faecalis [13]) | MIC (Streptococcus pneumoniae [14]) | MIC (Escherichia coli [15]) | MIC (Klebsiella pneumoniae [16]) | MIC (Klebsiella pneumoniae [17]) | MIC (Streptococcus pyogenes [18]) | MIC (Pseudomonas aeruginosa [19]) | MIC (Enterococcus faecalis [20]) | also measured
CC[C@H]1OC(=O)[C@@](C)(F)C(=O)[C@H](C)[C@@H](O[C@@H]2O[C@H](C)C[C@H](N(C)C)[C@H]2O)[C@@](C)(OC)C[C@@H](C)C(=O)[C@H](C)[C@H]2N(CCCNc3ccnc4ccccc34)C(=O)O[C@]12C | > 32 µg/mL | 0.25 µg/mL (≈ 0.307 µM) | > 32 µg/mL | 0.12 µg/mL (≈ 0.147 µM) | 0.06 µg/mL (≈ 0.0736 µM) | 0.12 µg/mL (≈ 0.147 µM) | 0.12 µg/mL (≈ 0.147 µM) | 8 µg/mL (≈ 9.82 µM) | 0.12 µg/mL (≈ 0.147 µM) | 4 µg/mL (≈ 4.91 µM) | 0.06 µg/mL (≈ 0.0736 µM) | ≤ 0.016 µg/mL | > 32 µg/mL | 0.06 µg/mL (≈ 0.0736 µM) | 8 µg/mL (≈ 9.82 µM) | 32 µg/mL (≈ 39.3 µM) | 16 µg/mL (≈ 19.6 µM) | > 32 µg/mL | > 32 µg/mL | > 32 µg/mL | MIC (Pseudomonas aeruginosa [21]): > 32 µg/mL; MIC (Klebsiella pneumoniae [22]): 8 µg/mL (≈ 9.82 µM)
CC[C@H]1OC(=O)[C@@](C)(F)C(=O)[C@H](C)[C@@H](O[C@@H]2O[C@H](C)C[C@H](N(C)C)[C@H]2O)[C@@](C)(OC)C[C@@H](C)C(=O)[C@H](C)[C@H]2N(CCCN(C(=O)c3ccccc3)c3ccnc4ccccc34)C(=O)O[C@]12C | > 32 µg/mL | 1 µg/mL (≈ 1.09 µM) | > 32 µg/mL | 0.25 µg/mL (≈ 0.272 µM) | 0.12 µg/mL (≈ 0.131 µM) | 1 µg/mL (≈ 1.09 µM) | 1 µg/mL (≈ 1.09 µM) | > 32 µg/mL | 0.5 µg/mL (≈ 0.544 µM) | > 32 µg/mL | 1 µg/mL (≈ 1.09 µM) | ≤ 0.016 µg/mL | > 32 µg/mL | 0.06 µg/mL (≈ 0.0653 µM) | > 32 µg/mL | > 32 µg/mL | > 32 µg/mL | > 32 µg/mL | > 32 µg/mL | > 32 µg/mL | MIC (Pseudomonas aeruginosa [21]): > 32 µg/mL; MIC (Klebsiella pneumoniae [22]): > 32 µg/mL
CC[C@H]1OC(=O)[C@@](C)(F)C(=O)[C@H](C)[C@@H](O[C@@H]2O[C@H](C)C[C@H](N(C)C)[C@H]2O)[C@@](C)(OC)C[C@@H](C)C(=O)[C@H](C)[C@H]2N(CCCN(C(=O)c3ccccc3)c3cnc4ccccc4c3)C(=O)O[C@]12C | > 32 µg/mL | 1 µg/mL (≈ 1.09 µM) | > 32 µg/mL | 0.12 µg/mL (≈ 0.131 µM) | 0.03 µg/mL (≈ 0.0326 µM) | 0.25 µg/mL (≈ 0.272 µM) | 0.25 µg/mL (≈ 0.272 µM) | > 32 µg/mL | 0.25 µg/mL (≈ 0.272 µM) | > 32 µg/mL | 0.12 µg/mL (≈ 0.131 µM) | ≤ 0.016 µg/mL | > 32 µg/mL | 0.06 µg/mL (≈ 0.0653 µM) | > 32 µg/mL | > 32 µg/mL | > 32 µg/mL | 32 µg/mL (≈ 34.8 µM) | > 32 µg/mL | > 32 µg/mL | MIC (Pseudomonas aeruginosa [21]): > 32 µg/mL; MIC (Klebsiella pneumoniae [22]): > 32 µg/mL
CC[C@H]1OC(=O)[C@@](C)(F)C(=O)[C@H](C)[C@@H](O[C@@H]2O[C@H](C)C[C@H](N(C)C)[C@H]2O)[C@@](C)(OC)C[C@@H](C)C(=O)[C@H](C)[C@H]2N(CCCN(C(C)=O)c3ccnc4ccccc34)C(=O)O[C@]12C | 4 µg/mL (≈ 4.67 µM) | 0.25 µg/mL (≈ 0.292 µM) | > 32 µg/mL | 0.06 µg/mL (≈ 0.07 µM) | 0.03 µg/mL (≈ 0.035 µM) | 0.12 µg/mL (≈ 0.14 µM) | 0.06 µg/mL (≈ 0.07 µM) | 32 µg/mL (≈ 37.3 µM) | 0.06 µg/mL (≈ 0.07 µM) | 32 µg/mL (≈ 37.3 µM) | 0.06 µg/mL (≈ 0.07 µM) | ≤ 0.016 µg/mL | 4 µg/mL (≈ 4.67 µM) | 0.03 µg/mL (≈ 0.035 µM) | 32 µg/mL (≈ 37.3 µM) | 32 µg/mL (≈ 37.3 µM) | > 32 µg/mL | 2 µg/mL (≈ 2.33 µM) | > 32 µg/mL | 4 µg/mL (≈ 4.67 µM) | MIC (Pseudomonas aeruginosa [21]): > 32 µg/mL; MIC (Klebsiella pneumoniae [22]): > 32 µg/mL

Reference: ChEMBL document CHEMBL5236651, “Synthesis and antibacterial activity of novel 2‑fluoro ketolide antibiotics with 11,12‑quinoylalkyl side chains” (2023)
